Measurements taken from patent publication US20130065825A1, “Compositions and Methods for Delaying Senescence or Cell Death in Neurons” (NEUROTEZ, INC., priority 2011, published 2013).

Tests used:
Aβ(1-40) = Aβ(1-40) in culture media of SY5Y-APP751 cells by ELISA; type: cell-based, human; details: 18 h; for effect of co-treatment on Leptin's reduction of Aβ(1-40): Leptin 500 ng/mL + nicotinamide 5 mM or compound C 20 μM, Aβ(1-40) returned to vehicle levels
Protocol: To generate SY5Y stably over-expressing amyloid precursor protein (APP), cells were transfected with a mammalian expression vector encoding the 751 amino acid isoform of human APP (APP751-Accession #NM_201413) (Origene Technologies; Rockville, Md.) using the FuGENE HD transfection reagent, according to manufacturer's specific instructions (Promega; Madison, Wis.). Briefly, cells were transiently transfected with APP751 or vehicle for 48 h and then switched into selection medium containing a concentration range of the antibiotic G418 (100-600 μg/mL) to determine the optimal dose for stable selection. Selection media was changed every 3 days to remove non-viable cells. After 3 weeks, 200 μg/mL G418 yielded distinct colonies while all vehicle-transfected cells were non-viable. Cells were maintained in 10% FBS media containing 200 μg/mL G418 for expansion.
(§1) Neuronal cells were treated with Leptin (500 ng/ml) in the presence or absence of nicotinamide (5 mM) or compound C (20 μM) for 6 or 18 h, depending on readout, and then harvested by scraping. Preparation of lysates and immunoblotting were performed as described.
(§2) Aβ(1-40) levels in cell culture media were determined using the Human β-Amyloid 1-40 ELISA kit (Invitrogen; Carlsbad, Calif.), and phospho- and total tau levels in cell culture lysates were determined using the Human Tau pSer^396, pThr^231 and Total Tau ELISA kits (Invitrogen) according to manufacturer's specific instructions.
The Human β-Amyloid 1-40 ELISA kit was used for the quantitative determination of human Aβ40 in samples (e.g., tissue culture medium, tissue homogenate, cerebrospinal fluid (CSF), and the like). The assay recognizes both natural and synthetic forms of human Aβ40. The anti-human Aβ40 antibody is capable of selectively detecting Aβ40 and not Aβ42/Aβ43. The Human β-Amyloid 1-40 ELISA kit is a solid phase sandwich Enzyme Linked-Immuno-Sorbent Assay (ELISA). […] This COOH-terminal sequence is created upon cleavage of the analyzed precursor. Bound rabbit antibody then is detected by the use of a horseradish peroxidase (HRP)-labeled anti-rabbit antibody. […]

[1] = system: AMP-Activated Protein Kinase (AMPK); test: AMPK activity assay (CycLex AMPK Kinase Assay Kit) in lysates of RA-SY5Y cells; type: cell-based, human
Protocol: (§3) For neuronal differentiation, 1×10^6 SY5Y or IMR-32 cells were grown in neruonal induction medium (NIM), which is consisted of MEM containing 2% FBS supplemented with 10 μM retinoic acid (RA). Cells were incubated in NIM for 6 days, and switched to serum-free NIM prior to treatment and harvesting on day 7.
as §1
AMP-Activated Protein Kinase (AMPK) activity in cell lysates was determined using the CycLex AMPK Kinase Assay Kit (MBL International; Woburn, Mass.), as described previously. Briefly, the term “relative AMPK activity” or “AMPK activity,” is defined as Compound C-sensitive protein kinase activity in cell lysates. Titration of various Compound C doses identified 10 μM as the dose in which there was no further reduction in kinase activity upon increasing concentration (data not shown). Neuronal cell lysates were incubated in the presence or absence of 10 μM Compound C, and protein kinase activity determined by measuring phosphorylation of the Insulin Receptor Substrate-1 (IRS-1) through immunoassay and conversion of a chromogenic substrate at an absorbance of 450 nm (A450). Normalized AMPK activity in the lysates was defined as: […]

phosphorylated tau = test: Tau phosphorylation in RA-SY5Y cells by immunoblot (pTau181) and ELISA (pTau231, pTau396); type: cell-based, human; details: 6 h; for effect of co-treatment on Leptin's reduction of phospho-tau: Leptin 500 ng/mL + nicotinamide 5 mM or compound C 20 μM, phospho-tau returned to control levels; for Tau396 phosphorylation compared to control: nicotinamide 5 mM or compound C 20 μM, independent of Leptin treatment, ELISA
Protocol: as §3, §1, §2
The Invitrogen Human Tau (Total) kit is a solid phase sandwich Enzyme Linked-Immuno-Sorbent Assay (ELISA). Samples, including standards of known human Tau content, control specimens, and unknowns, are pipetted into the wells of microtiter strips, which are coated with a monoclonal antibody specific for human Tau. During the first incubation, the human Tau antigen binds to the immobilized (capture) antibody on one site. After washing, a rabbit polyclonal antibody specific for human Tau is added. During the second incubation, this antibody binds to the immobilized human Tau captured during the first incubation. After removal of excess second antibody, a horseradish peroxidase (HRP)-labeled anti-rabbit antibody is added. This binds to the rabbit polyclonal antibody to complete the four-member sandwich. After a third incubation and washing to remove all the excess anti-rabbit HRP, a substrate solution is added, which is acted upon by the bound enzyme to produce color. The intensity of this colored product is directly proportional to the concentration of human Tau present in the original specimen.

Total Sirtuins [2] = test: SIRT activity assay (Fluor-de-Lys HDAC Fluorimetric Cellular Activity Assay Kit) in lysates of RA-SY5Y cells; type: cell-based, human; details: 6 h
Protocol: as §3, §1
Total Sirtuins activity in cell lysates was determined using the Fluro-de-Lys® HDAC Fluorimetric Cellular Activity Assay Kit (Enzo Life Sciences; Plymouth Meeting, Pa.), according to manufacturer's specified guidelines. “SIRT activity” in this assay is defined as nicotinamide-sensitive deacetylase (class III HDAC) activity in cell lysates. […] Neuronal cell lysates were incubated in the presence or absence of 5 mM nicotinamide, and SIRT activity determined by adding the Flour-de-Lys® Substrate for deacetylation followed by exposure to the Fluor-de-Lys® Developer to generate a fluorescent signal for detection using a fluorimeter (Ex. 350-380 nm; Em. 440-460 nm). Normalized SIRT activity in the lysates was measured in units of fluorescence intensity (Fi) and defined as: […]

Total Sirtuins [3] = details: identified by the manufacturer of the kit; cited from earlier work

Molecule | effect of co-treatment on Leptin's reduction of Aβ(1-40) (Aβ(1-40)) | AMPK activity on co-treatment with Leptin ([1]; RA-SY5Y cells, Leptin 500 ng/mL + compound C 20 μM, 6 h, to levels similar to non-treated control) | dose with no further reduction in kinase activity upon increasing concentration ([1]; titration in cell lysates, data not shown) [µM] | effect of co-treatment on Leptin's reduction of phospho-tau (phosphorylated tau) | Tau396 phosphorylation compared to control (phosphorylated tau) | SIRT activity on co-treatment with Leptin (Total Sirtuins [2]; Leptin 500 ng/mL + nicotinamide 5 mM, to levels similar to non-treated control) | dose with no further reduction in deacetylase activity upon increasing concentration (Total Sirtuins [3]) [mM] | Aβ(1-40) in culture media (Aβ(1-40); Leptin 500 ng/mL, no inhibitors, normalized to total protein, n=3) | increase in AMPK kinase activity vs cells treated without Leptin ([1]; RA-SY5Y cells, Leptin 500 ng/mL, 6 h, normalized to total protein, n=3, p<0.05) | increase in total SIRT deacetylase activity vs cells treated without Leptin (Total Sirtuins [2]; Leptin 500 ng/mL, normalized to total protein, n=3, p<0.05) | all examined phospho-tau species (pTau181, pTau231, pTau396) (phosphorylated tau; Leptin 500 ng/mL, no SIRT or AMPK inhibition, normalized to total tau, n=3)
c1cc(-c2cnn3cc(-c4ccc(OCCN5CCCCC5)cc4)cnc23)ccn1 [compound C, 6-[4-(2-Piperidin-1-yl-ethoxy)-phenyl]-3-pyridin-4-yl-pyrrazolo[1,5,-α]pyrimidine] | reversed these effects | significantly (p<0.05) reduced AMPK activity | 10 | negated these effects | significantly (p<0.05) increased |  |  |  |  |  | 
NC(=O)c1cccnc1 [nicotinamide] | reversed these effects |  |  | negated these effects | significantly (p<0.05) increased | significantly (p<0.05) reduced SIRT activity | 5 |  |  |  | 
Leptin: recombinant human Leptin purchased from Sigma-Aldrich; pleiotropic hormone primarily secreted by adipocytes |  |  |  |  |  |  |  | significant (p<0.05) reduction | approximately 2 fold | approximately 2.5 fold | significant (p<0.05) reduction
